BindingDB's records for doi:10.1021/jm00346a010 (1982)

How the values were obtained:
[1] = target: Adenylate kinase (Escherichia coli) (UniProt P69441); experiment: Ability to inhibit Escherichia coli adenylate kinase II, activity expressed as Inhibition constant
[2] = target: Adenylate kinase (Escherichia coli) (UniProt P69441); experiment: Ability to inhibit Escherichia coli adenylate kinase III, activity expressed as Inhibition constant; Non competitive inhibition

Row | Compound | Ki [1] [mM] | Ki [2] [mM]
1 | CN(CCCN(C)C(=O)CCCCNc1ncnc2c1ncn2[C@@H]1O[C@H](COP(=O)(O)OP(=O)(O)OP(=O)(O)O)[C@@H](O)[C@H]1O)C(=O)CCCCNC(=O)OCc1ccccc1 | 6.8 | –
2 | NCCCCCCNc1nc2c(N)ncnc2n1C1O[C@H](COP(=O)(O)OP(=O)(O)OP(=O)(O)O)[C@@H](O)[C@H]1O (stereo not given in full) | 7.3 | –
3 | O=C(CI)NCCCCCNc1ncnc2c1ncn2[C@@H]1O[C@H](COP(=O)(O)OP(=O)(O)OP(=O)(O)O)[C@@H](O)[C@H]1O | – | 4.8

Continued by falling Ki [1], values first:

Row | Ki [1] [mM] | Ki [2] [mM] | Compound
4 | 6.7 | – | CC(=O)NCCCCCCNc1nc2c(N)ncnc2n1C1O[C@H](COP(=O)(O)OP(=O)(O)OP(=O)(O)O)[C@@H](O)[C@H]1O (stereo not given in full)
5 | 4.7 | – | O=C(NCCCCCNc1ncnc2c1ncn2C1O[C@H](COP(=O)(O)OP(=O)(O)OP(=O)(O)O)[C@@H](O)[C@H]1O)OCc1ccccc1 (stereo not given in full)
